{"source": "paper PMC9842066", "about": "“Implantable device actuated by manual button clicks for noninvasive self‐drug administration” (Bioengineering & Translational Medicine, 2022)", "key": {"[1]": {"test_system": "STZ-induced diabetic rats", "test": "PD studies on insulin and glucagon delivery (plasma glucose)", "type": "in vivo, Wistar rats", "conditions": "hyperglycemic STZ-induced Type 1 diabetic rats (>400 mg dl^−1); 1-U insulin by SC injection or BCD; n = 4 per group", "experimental": "For this experiment, we employed a Type 1 diabetic animal model, streptozotocin (STZ)‐induced diabetic rats.[26], [28] To induce this animal model, Wistar rats were fasted overnight, and then intraperitoneally injected with a STZ solution (60 mg kg^−1) prepared in 0.09 M citrate buffered saline (pH 4.0) to destroy the beta‐cells of the pancreas. Three days after the STZ injection, the plasma glucose level was measured with a glucometer, and the animals with a plasma glucose level > 400 mg dl^−1 were screened for use. Among them, we employed two distinct animal models of hyperglycemia and hypoglycemia, respectively. For a hyperglycemic condition, the animals were used as they were with a blood glucose level of >400 mg dl^−1.[28], [29] For a hypoglycemic condition, the animals were fasted overnight and the ones with a plasma glucose level of <72 mg dl^−1 were screened for use.[30] The hyperglycemic animals were treated with 1‐U insulin by an SC injection or implanted BCD: Inj‐Insulin (n = 4) and BCD‐Insulin (n = 4), respectively. For this, we utilized a commercially available insulin solution (100 U ml^−1; NovoRapid, Novo Nordisk). […] After administration, the plasma glucose level was measured with a glucometer at scheduled times."}, "[2]": {"test": "Stability assessment of exenatide and insulin in the BCD", "source_text": "Supplementary Figure 5. […] To obtain the CD spectra, the solution was placed in a 1-mm path length cuvette (Chirascan plus, Applied Photophysics, Surrey, UK) and scanned over range of 200-260 nm."}}, "data": [{"substance": "insulin: commercially available insulin solution (100 U ml^−1; NovoRapid, Novo Nordisk)", "values": [{"measurement": "Change in plasma glucose level after insulin", "setting": "[1]", "value": "decrease"}, {"measurement": "Stability during 4-week period in the BCD", "setting": "[2]; 4 weeks, Figure S5", "value": "well retained"}, {"measurement": "Drop of blood glucose level with stored versus fresh insulin", "setting": "[2]; insulin stored in BCD at 37 °C for 28 days, injected subcutaneously to diabetic animals, n = 3", "value": "similar"}, {"measurement": "Drug content (HPLC) and far-UV CD spectra after incubation in the BCD", "setting": "[2]; loaded BCDs stored at 37 °C for 28 days, versus fresh drug solution, n = 3, HPLC and CD 200-260 nm", "value": "did not vary"}]}]}
